{"source": "patent US9539252B2", "about": "“Piperazine-substituted benzothiophene derivatives as antipsychotic agents” (OTSUKA PHARMACEUTICAL CO., LTD., priority 2011, dated 2017)", "test": "Solubility in oil (sesame oil, benzyl benzoate), visual observation", "details": "oil or lipid, thermodynamic from solid", "data": [{"smiles": "CCCCN(CCCC)C(=O)OCN1C(=O)CCc2ccc(OCCCCN3CCN(c4cccc5sccc45)CC3)cc21", "note": "[Example 28, N,N-dibutylcarbamic acid 7-[4-(4-benzo[b]thiophen-4-ylpiperazin-1-yl)butoxy]-2-oxo-3,4-dihydro-2H-quinolin-1-ylmethyl ester]", "values": [{"measurement": "solubility", "setting": "benzyl benzoate", "value": "> 100", "unit": "mg/mL"}, {"measurement": "solubility", "setting": "sesame oil", "value": "> 100", "unit": "mg/mL"}]}, {"smiles": "O=C(OCn1c(=O)ccc2ccc(OCCCCN3CCN(c4cccc5sccc45)CC3)cc21)N1CCCCC1", "note": "[Example 10, piperidine-1-carboxylic acid 7-[4-(4-benzo[b]thiophen-4-ylpiperazin-1-yl)butoxy]-2-oxo-2H-quinolin-1-ylmethyl ester]", "values": [{"measurement": "solubility", "setting": "benzyl benzoate", "value": "> 100", "unit": "mg/mL"}]}, {"smiles": "O=C(OCn1c(=O)ccc2ccc(OCCCCN3CCN(c4cccc5sccc45)CC3)cc21)C1CCOCC1", "note": "[Example 130, tetrahydropyran-4-carboxylic acid 7-[4-(4-benzo[b]thiophen-4-ylpiperazin-1-yl)butoxy]-2-oxo-2H-quinolin-1-ylmethyl ester]", "values": [{"measurement": "solubility", "setting": "benzyl benzoate", "value": "> 100", "unit": "mg/mL"}]}, {"smiles": "CCCCC(C)(C)C(=O)OCN1C(=O)CCc2ccc(OCCCCN3CCN(c4cccc5sccc45)CC3)cc21", "note": "[Example 84, 2,2-dimethylhexanoic acid 7-[4-(4-benzo[b]thiophen-4-ylpiperazin-1-yl)butoxy]-2-oxo-3,4-dihydro-2H-quinolin-1-ylmethyl ester]", "values": [{"measurement": "solubility", "setting": "benzyl benzoate", "value": "> 100", "unit": "mg/mL"}]}, {"smiles": "CN(Cc1ccccc1)C(=O)OCn1c(=O)ccc2ccc(OCCCCN3CCN(c4cccc5sccc45)CC3)cc21", "note": "[Example 111, N-benzyl-N-methylcarbamic acid 7-[4-(4-benzo[b]thiophen-4-ylpiperazin-1-yl)butoxy]-2-oxo-2H-quinolin-1-ylmethyl ester]", "values": [{"measurement": "solubility", "setting": "benzyl benzoate", "value": "> 100", "unit": "mg/mL"}]}, {"smiles": "CN(Cc1ccco1)C(=O)OCn1c(=O)ccc2ccc(OCCCCN3CCN(c4cccc5sccc45)CC3)cc21", "note": "[Example 125, N-furan-2-ylmethyl-N-methylcarbamic acid 7-[4-(4-benzo[b]thiophen-4-ylpiperazin-1-yl)butoxy]-2-oxo-2H-quinolin-1-ylmethyl ester]", "values": [{"measurement": "solubility", "setting": "benzyl benzoate", "value": "> 100", "unit": "mg/mL"}]}, {"smiles": "CC(C)COC(=O)OCn1c(=O)ccc2ccc(OCCCCN3CCN(c4cccc5sccc45)CC3)cc21", "note": "[Example 170, carbonic acid 7-[4-(4-benzo[b]thiophen-4-ylpiperazin-1-yl)butoxy]-2-oxo-2H-quinolin-1-ylmethyl ester isobutyl ester]", "values": [{"measurement": "solubility", "setting": "benzyl benzoate", "value": "> 100", "unit": "mg/mL"}]}, {"smiles": "CCCCCCCCOC(=O)OCn1c(=O)ccc2ccc(OCCCCN3CCN(c4cccc5sccc45)CC3)cc21", "note": "[Example 384, (7-(4-(4-(benzo[b]thiophen-4-yl)piperazin-1-yl)butoxy)-2-oxoquinolin-1(2H)-yl)methyl octyl carbonate]", "values": [{"measurement": "solubility", "setting": "benzyl benzoate", "value": "> 100", "unit": "mg/mL"}, {"measurement": "solubility", "setting": "sesame oil", "value": "> 100", "unit": "mg/mL"}]}, {"smiles": "CCCCN(CCCC)C(=O)OCn1c(=O)ccc2ccc(OCCCCN3CCN(c4cccc5sccc45)CC3)cc21", "note": "[Example 45, N,N-dibutylcarbamic acid 7-[4-(4-benzo[b]thiophen-4-ylpiperazin-1-yl)butoxy]-2-oxo-2H-quinolin-1-ylmethyl ester]", "values": [{"measurement": "solubility", "setting": "benzyl benzoate", "value": "> 100", "unit": "mg/mL"}, {"measurement": "solubility", "setting": "sesame oil", "value": "> 100", "unit": "mg/mL"}]}, {"smiles": "CCCCCC(C)C(=O)OCN1C(=O)CCc2ccc(OCCCCN3CCN(c4cccc5sccc45)CC3)cc21", "note": "(centres unmarked) [Example 92, 2-methylheptanoic acid 7-[4-(4-benzo[b]thiophen-4-ylpiperazin-1-yl)butoxy]-2-oxo-3,4-dihydro-2H-quinolin-1-ylmethyl ester]", "values": [{"measurement": "solubility", "setting": "benzyl benzoate", "value": "> 100", "unit": "mg/mL"}]}, {"smiles": "CCCCCCCCCCCC(=O)OCN1C(=O)CCc2ccc(OCCCCN3CCN(c4cccc5sccc45)CC3)cc21", "note": "[Example 21, dodecanoic acid 7-[4-(4-benzo[b]thiophen-4-ylpiperazin-1-yl)butoxy]-2-oxo-3,4-dihydro-2H-quinolin-1-ylmethyl ester]", "values": [{"measurement": "solubility", "setting": "benzyl benzoate", "value": "> 100", "unit": "mg/mL"}, {"measurement": "solubility", "setting": "sesame oil", "value": "> 100", "unit": "mg/mL"}]}, {"smiles": "CCN(CC)C(=O)OCn1c(=O)ccc2ccc(OCCCCN3CCN(c4cccc5sccc45)CC3)cc21", "note": "[Example 57, N,N-diethylcarbamic acid 7-[4-(4-benzo[b]thiophen-4-ylpiperazin-1-yl)butoxy]-2-oxo-2H-quinolin-1-ylmethyl ester]", "values": [{"measurement": "solubility", "setting": "benzyl benzoate", "value": "> 100", "unit": "mg/mL"}, {"measurement": "solubility", "setting": "sesame oil", "value": "> 100", "unit": "mg/mL"}]}]}
